From ChEMBL document CHEMBL5576054, “Lead compound profiling for small molecule inhibitors of the REV1-CT/RIR Translesion synthesis Protein-Protein interaction” (Bioorg Med Chem, 2024)
In brackets after ≈: the same amount, converted by molar mass. Activity calls are given as the source filed them. The calls are words filed in the database; no cut-off is given here.

Columns and labels:
SW1271 [1] = assay: Synergistic inhibition of cell viability in human SW1271 cells at 20 uM incubated for 5 days in presence of Olaparib/Temozolomide by Cell Titer Glo assay; assay type: functional, cell-based; settings: time 5.0 day
[2] = Disruption of C-terminal REV-1/FAM-tagged Pol kappa RIR (unknown origin) interaction incubated for 1 hr by FP assay; parameters: species or system Homo sapiens
DNA repair protein REV1 = biological target: T1, DNA repair protein REV1 (Homo sapiens, UniProt Q9UBZ9); assay: Binding affinity to C-terminal human REV-1 assessed as dissociation constant incubated for 30 mins by MST assay
T1 sequence (Q9UBZ9 whole entry): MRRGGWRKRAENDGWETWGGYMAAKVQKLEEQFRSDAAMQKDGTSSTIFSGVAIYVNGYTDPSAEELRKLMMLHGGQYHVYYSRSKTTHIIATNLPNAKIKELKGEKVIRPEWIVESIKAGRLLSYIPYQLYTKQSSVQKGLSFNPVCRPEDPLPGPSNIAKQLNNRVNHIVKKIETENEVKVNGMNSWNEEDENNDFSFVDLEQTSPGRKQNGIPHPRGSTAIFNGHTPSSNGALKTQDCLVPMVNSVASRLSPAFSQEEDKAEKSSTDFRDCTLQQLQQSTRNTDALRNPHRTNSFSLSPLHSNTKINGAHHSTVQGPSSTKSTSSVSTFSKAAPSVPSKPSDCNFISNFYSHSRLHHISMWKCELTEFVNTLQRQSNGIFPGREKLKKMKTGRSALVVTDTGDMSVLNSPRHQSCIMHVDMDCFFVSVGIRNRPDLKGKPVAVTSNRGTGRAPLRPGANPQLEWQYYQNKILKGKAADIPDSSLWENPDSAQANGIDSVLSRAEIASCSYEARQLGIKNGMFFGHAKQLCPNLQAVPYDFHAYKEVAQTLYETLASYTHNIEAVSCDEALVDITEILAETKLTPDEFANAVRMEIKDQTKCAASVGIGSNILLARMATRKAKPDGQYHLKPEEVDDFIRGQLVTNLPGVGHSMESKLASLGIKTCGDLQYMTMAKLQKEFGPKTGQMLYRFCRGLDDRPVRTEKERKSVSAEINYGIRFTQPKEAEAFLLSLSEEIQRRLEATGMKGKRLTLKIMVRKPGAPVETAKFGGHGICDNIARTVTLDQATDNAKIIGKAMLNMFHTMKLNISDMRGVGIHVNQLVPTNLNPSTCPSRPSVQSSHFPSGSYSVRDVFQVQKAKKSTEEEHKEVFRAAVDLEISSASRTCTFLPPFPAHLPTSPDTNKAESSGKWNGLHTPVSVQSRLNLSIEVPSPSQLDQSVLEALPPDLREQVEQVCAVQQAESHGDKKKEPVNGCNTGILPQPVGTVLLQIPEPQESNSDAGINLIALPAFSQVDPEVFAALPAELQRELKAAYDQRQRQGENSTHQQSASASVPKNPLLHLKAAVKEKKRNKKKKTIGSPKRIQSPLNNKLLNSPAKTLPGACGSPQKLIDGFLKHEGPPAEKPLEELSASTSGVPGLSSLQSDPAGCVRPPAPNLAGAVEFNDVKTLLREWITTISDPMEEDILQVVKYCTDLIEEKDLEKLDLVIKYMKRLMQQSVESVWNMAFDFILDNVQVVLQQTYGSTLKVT

[3] = Solubility of compound in PBS at pH 4; assay type: physicochemical; settings: buffer
[4] = Solubility of compound in PBS at pH 7.4; assay type: physicochemical
[5] = Metabolic stability in human liver microsomes assessed as half life at 1 uM incubated upto 60 mins by LC-MS/MS analysis; assay type: ADME, Microsome; settings: 1 h
[6] = Metabolic stability in human liver microsomes assessed as intrinsic clearance at 1 uM incubated upto 60 mins by LC-MS/MS analysis; assay type: ADME, Microsome; settings: 1 h
A549 = assay: Inhibition of cologenic survival in human A549 cells incubated for 8 to 10 days by crystal violet staining based analysis; assay type: functional, cell-based; settings: time 8-10 day
MEF [7] = assay: Inhibition of cologenic survival in mouse MEF cells at 10 uM incubated for 24 hrs followed by fresh media replacement without compound measured after 4 days by crystal violet staining based analysis; assay type: functional, cell-based
MEF [8] = assay: Synergistic inhibition of cologenic survival in mouse MEF cells at 10 uM incubated for 24 hrs followed by fresh media replacement without compound measured after 4 days in presence of cisplatin by crystal violet staining based analysis; assay type: functional, cell-based
MEF [9] = assay: Synergistic inhibition of cologenic survival in mouse MEF cells with Rev1-/- at 10 uM incubated for 24 hrs followed by fresh media replacement without compound measured after 4 days in presence of cisplatin by crystal violet staining based analysis; assay type: functional, cell-based
SW1271 [10] = assay: Synergistic inhibition of cell viability in human SW1271 cells with Rev1-/- at 20 uM incubated for 5 days in presence of Olaparib/Temozolomide by Cell Titer Glo assay; assay type: functional, cell-based; settings: time 5.0 day
[11] = Clearance in CD-1 mouse at 1 mg/kg, iv by LC-MS/MS analysis; assay type: ADME, organism-based; settings: in vivo
[12] = Half life in CD-1 mouse at 1 mg/kg, iv by LC-MS/MS analysis; assay type: ADME, organism-based; settings: in vivo
[13] = C0 in CD-1 mouse at 1 mg/kg, iv by LC-MS/MS analysis; assay type: ADME, organism-based; settings: in vivo
[14] = AUClast in CD-1 mouse at 1 mg/kg, iv by LC-MS/MS analysis; assay type: ADME, organism-based; settings: in vivo
[15] = AUC (infinity) in CD-1 mouse at 1 mg/kg, iv by LC-MS/MS analysis; assay type: ADME, organism-based; settings: in vivo
[16] = Area under curve extrapolated from the last time point to infinity in CD-1 mouse at 1 mg/kg, iv by LC-MS/MS analysis; assay type: ADME, organism-based; settings: in vivo
[17] = MRT (infinity) in CD-1 mouse at 1 mg/kg, iv by LC-MS/MS analysis; assay type: ADME, organism-based; settings: in vivo
[18] = Dose normalized AUClast in CD-1 mouse at 1 mg/kg, iv by LC-MS/MS analysis; assay type: ADME, organism-based; settings: in vivo
[19] = Volume of distribution at steady state in CD-1 mouse at 1 mg/kg, iv by LC-MS/MS analysis; assay type: ADME, organism-based; settings: in vivo
[20] = Half life in CD-1 mouse at 100 mg/kg, ip by LC-MS/MS analysis; assay type: ADME, organism-based; settings: in vivo
[21] = Tmax in CD-1 mouse at 100 mg/kg, ip by LC-MS/MS analysis; assay type: ADME, organism-based; settings: in vivo
[22] = Cmax in CD-1 mouse at 100 mg/kg, ip by LC-MS/MS analysis; assay type: ADME, organism-based; settings: in vivo
[23] = AUClast in CD-1 mouse at 100 mg/kg, ip by LC-MS/MS analysis; assay type: ADME, organism-based; settings: in vivo
[24] = AUC (infinity) in CD-1 mouse at 100 mg/kg, ip by LC-MS/MS analysis; assay type: ADME, organism-based; settings: in vivo
[25] = Area under curve extrapolated from the last time point to infinity in CD-1 mouse at 100 mg/kg, ip by LC-MS/MS analysis; assay type: ADME, organism-based; settings: in vivo
[26] = MRT (infinity) in CD-1 mouse at 100 mg/kg, ip by LC-MS/MS analysis; assay type: ADME, organism-based; settings: in vivo
[27] = Dose normalized AUClast in CD-1 mouse at 100 mg/kg, ip by LC-MS/MS analysis; assay type: ADME, organism-based; settings: in vivo
[28] = Toxicity in BALB/c nude mouse assessed as effect on body weight at 30 to 100 mg/kg, po qd for 7 days; assay type: organism-based; settings: in vivo, 168 h, dose 30-100 mg/kg, time 7 day
[29] = Toxicity in BALB/c nude mouse assessed as visual signs of toxicity at 30 to 100 mg/kg, po qd for 7 days; assay type: organism-based; settings: in vivo, 168 h, dose 30-100 mg/kg, time 7 day
[30] = Toxicity in BALB/c nude mouse assessed as general impairment at 30 to 100 mg/kg, po qd for 7 days; assay type: organism-based; settings: in vivo, 168 h, dose 30-100 mg/kg, time 7 day
[31] = Toxicity in BALB/c nude mouse assessed as decrease in animal weight at 200 mg/kg, po qd measured for 2 days; assay type: organism-based; settings: in vivo, 48 h, time 2 day
[32] = Toxicity in BALB/c nude mouse assessed as animal death at 200 mg/kg, po qd measured for 3 days; assay type: organism-based; settings: in vivo, 72 h, time 3 day
[33] = Toxicity in BALB/c nude mouse administered orally once daily for 7 days; settings: in vivo, route po, time 7 day
[34] = Oral bioavailability in CD-1 mouse at 100 mg/kg by LC-MS/MS analysis; assay type: ADME, organism-based; settings: in vivo

Structure (SMILES): Nc1ccc(/N=N/c2cccc(F)c2F)c(N)n1
- inhibition (SW1271 [1]): Active
- IC50 [2]: 0.4 µM
- Kd (DNA repair protein REV1): 21 µM
- solubility [3]: 4.5 µM (≈ 1.12 µg/mL)
- solubility [4]: 8.5 µM (≈ 2.12 µg/mL)
- t1/2 [5]: < 2.3 min
- intrinsic clearance (CLint) [6]: > 300 µL/min/mg
- inhibition (A549): Active
- inhibition (MEF [7]): inactive
- inhibition (MEF [8]): Active
- inhibition (MEF [9]): inactive
- inhibition (SW1271 [10]): inactive
- clearance [11]: 177 mL/min/kg
- half-life ([12]; CD-1, mouse): 20.3 min
- C0 ([13]; CD-1, mouse, read-out: C0): 412 ng/mL
- AUC(0-t) [14]: 97 ng·h/mL
- AUC(0-inf) [15]: 97 ng·h/mL
- %AUCextra [16]: 0.77%
- MRT inf ([17]; CD-1, mouse): 15.8 min
- AUClast/dose [18]: 96.7 ng·h/mL
- Vd ([19]; CD-1, mouse, read-out: Vdss): 2.81 L/kg
- half-life [20]: 269 min
- Tmax [21]: 25 min
- Cmax [22]: 12500 ng/mL
- AUC(0-t) [23]: 25300 ng·h/mL
- AUC(0-inf) [24]: 25500 ng·h/mL
- %AUCextra [25]: 0.58%
- MRT inf [26]: 124 min
- AUClast/dose [27]: 253 ng·h/mL
- Activity [28]: Non-Toxic
- Activity [29]: Non-Toxic
- Activity [30]: Non-Toxic
- Activity [31]: Toxic
- Activity [32]: Toxic
- MTD at 168 h [33]: ≤ 100 mg/kg

Structure (SMILES): C=CCOc1cccc(C(=O)Nc2sc(CCC)cc2C(=O)OCC)c1
- IC50 [2]: 66.2 µM

Structure (SMILES): Cc1cc(C)c2nc(-c3ccncc3)cc(C(=O)NCCCn3ccnc3)c2c1
- IC50 [2]: 6.7 µM
- Kd (DNA repair protein REV1): > 200 µM
- solubility [3]: 268 µM (≈ 103 µg/mL)
- solubility [4]: 146 µM (≈ 56.3 µg/mL)
- t1/2 [5]: 4.7 min
- intrinsic clearance (CLint) [6]: 148 µL/min/mg

Structure (SMILES): CCCc1cc(C(=O)OCC)c(NC(=O)c2ccc(O)cc2)s1
- IC50 [2]: 9.3 µM

Structure (SMILES): CCCc1cc(C(=O)OCC)c(NC(=O)c2cccc(O)c2)s1
- IC50 [2]: 2.5 µM

Structure (SMILES): CCCc1cc(C(=O)OC)c(NC(=O)C2CCN(C(C)=O)CC2)s1
- IC50 [2]: 4.1 µM
- Kd (DNA repair protein REV1): 6.7 µM
- intrinsic clearance (CLint) [6]: 18.8 µL/min/mg
- t1/2 ([12]; mouse, iv, 1 mg/kg): 16.9 min
- C0 ([13]; mouse, iv, 1 mg/kg): 200 ng/mL
- AUC(0-t) [14]: 37.3 ng·h/mL
- AUC(0-inf) [15]: 38.2 ng·h/mL
- %AUCextra [16]: 2.39%
- MRT ([17]; mouse, iv, 1 mg/kg): 13.5 min
- AUClast/dose [18]: 37.3 ng·h/mL
- Vdss ([19]; mouse, iv, 1 mg/kg): 5.96 L/kg
- half-life [20]: 340 min
- Tmax [21]: 15 min
- Cmax [22]: 2780 ng/mL
- AUC(0-t) [23]: 2280 ng·h/mL
- AUC(0-inf) [24]: 2320 ng·h/mL
- %AUCextra [25]: 1.74%
- MRT inf [26]: 169 min
- AUClast/dose [27]: 22.8 ng·h/mL
- F [34]: 60.8%
- Activity [28]: Non-Toxic
- Activity [29]: Non-Toxic
- Activity [30]: Non-Toxic
- Activity [31]: Toxic
- Activity [32]: Toxic
- MTD at 168 h [33]: ≤ 100 mg/kg

Structure (SMILES): CCCc1cc(C(=O)OC)c(NC(=O)c2ccccc2)s1
- IC50 [2]: 4.7 µM

Structure (SMILES): CCOC(=O)c1c(NC(=O)C2CCN(C(C)=O)CC2)sc2c1CCCC2
- IC50 [2]: 5.8 µM

Structure (SMILES): CCCc1cc(C(=O)OCC)c(NC(=O)c2ccccc2)s1
- IC50 [2]: 4.4 µM

Structure (SMILES): C=CCOc1ccc(C(=O)Nc2sc(CCC)cc2C(=O)OCC)cc1
- IC50 [2]: 25.3 µM

Structure (SMILES): Nc1ccc(/N=N/c2ccc3ccccc3c2)c(N)c1
- inhibition (A549): Active

Structure (SMILES): Nc1ccc(/N=N/c2ccc3ccccc3c2)c(N)n1
- inhibition (A549): Active

Structure (SMILES): CC(=O)C(C)n1c(CN2CCN(c3cccc(Cl)c3)CC2)nc2c1c(=O)n(C)c(=O)n2C (configuration not stated)
- solubility [3]: 45.5 µM (≈ 20.9 µg/mL)
- solubility [4]: 177 µM (≈ 81.2 µg/mL)
- t1/2 [5]: 3.4 min
- intrinsic clearance (CLint) [6]: 202 µL/min/mg

Structure (SMILES): CCCc1cc(C(=O)OCC)c(NC(=O)C2CCN(C(C)=O)CC2)s1
- IC50 [2]: 2.9 µM

Structure (SMILES): C=CCOc1ccccc1C(=O)Nc1sc(CCC)cc1C(=O)OCC
- IC50 [2]: 14.9 µM
